Results on 21 compounds are retold here after US10316017B2, “COT modulators and methods of use thereof” (Gilead Sciences, Inc., priority 2015, dated 2019).

The test system of assay [1] is TNFα production in LPS-stimulated human monocytes. The assay is described as follows: Cot Monocyte TNFα Cell Based Assay. To be noted: Homo sapiens, Monocyte, TNFα in LPS-stimulated human monocytes; read-out: EC50 TNF. An outline of the steps: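 TNFα release quantified by two-antibody TR-FRET, normalised to unstimulated (0%) and LPS-stimulated (100%) wells. Cells got a 1 h compound exposure at 37° C in 0.5% DMSO before 4 h challenge with 50 pg/ml LPS, at 5,000 cells/well.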

Assay [2] deals with T1, human Cot catalytic domain (30-397 amino acids) (Homo sapiens, UniProt P41279).
T1 construct: Purified recombinant human Cot catalytic domain (30-397 amino acids) was purchased from Cama Biosciences; purchased Cama Biosciences (so in the source)
The assay is described as follows: High Throughput Cot Biochemical Assay (KinEASE TR-FRET). To be noted: Cot biochemical HTRF (KinEASE TR-FRET) assay; read-out: IC50 HTRF. An outline of the steps:
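TR-FRET (KinEASE) read-out: Eu-labelled phospho-specific antibody binds XL665-tagged STK3 peptide (1 μM) phosphorylated by 5 nM human Cot kinase domain (residues 30-397). Reaction at 400 μM ATP, pH 7.0 MOPS buffer with 10 mM MgOAc, 1 mM DTT and 0.1% DMSO.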
(In general: TR-FRET usually uses a lanthanide donor and a delayed reading to cut background.)

T1 sequence (P41279 30-397): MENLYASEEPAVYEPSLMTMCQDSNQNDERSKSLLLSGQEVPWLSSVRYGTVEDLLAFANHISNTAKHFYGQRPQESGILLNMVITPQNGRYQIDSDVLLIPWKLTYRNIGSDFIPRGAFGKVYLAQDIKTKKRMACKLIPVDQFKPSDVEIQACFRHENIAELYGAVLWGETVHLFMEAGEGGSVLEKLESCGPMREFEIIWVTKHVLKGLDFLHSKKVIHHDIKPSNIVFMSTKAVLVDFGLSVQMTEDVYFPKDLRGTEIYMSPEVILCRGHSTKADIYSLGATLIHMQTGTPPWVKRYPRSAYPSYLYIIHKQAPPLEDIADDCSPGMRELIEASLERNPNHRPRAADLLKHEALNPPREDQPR

The EC50 is the midpoint of the concentration-response curve. The IC50 is the concentration that inhibits the measured activity by half. As for `CC(C)(C)N1CCC(n2cc([C@@H](Nc3cc(Cl)c4ncc(C#N)c(Nc5ccc(F)c(Cl)c5)c4c3)c3cccc(N4CCCCC4=O)c3)nn2)CC1` [Example 548, (S)-6-(((1-(1-(tert-butyl)piperidin-4-yl)-1H-1,2,3-triazol-4-yl)(3-(2-oxopiperidin-1-yl)phenyl)methyl)amino)-8-chloro-4-((3-chloro-4-fluorophenyl)amino)quinoline-3-carbonitrile], in assay [1], the EC50 was 40 nM. Further, the IC50 in assay [2] is 1 nM.
Consider `CC(C)n1cc([C@@H](Nc2cc(Cl)c3ncc(C#N)c(Nc4ccc(F)c(Cl)c4)c3c2)c2cccc(N3CCCC3=O)c2)nn1` [Example 549, (S)-8-chloro-4-((3-chloro-4-fluorophenyl)amino)-6-(((1-isopropyl-1H-1,2,3-triazol-4-yl) (3-(2-oxopyrrolidin-1-yl)phenyl)methyl)amino) quinoline-3-carbonitrile], for which the concentration for a half-maximal effect (EC50) in assay [1] came out at 650 nM. In addition, the IC50 in assay [2] was 3 nM.
The matching figures for `CC(C)(C)N1CCC(n2cc([C@@H](Nc3cc(Cl)c4ncc(C#N)c(Nc5ccc(F)c(Cl)c5)c4c3)c3cccc(N4CCCC4=O)c3)nn2)CC1` [Example 550, (S)-6-(((1-(1-(tert-butyl)piperidin-4-yl)-1H-1,2,3-triazol-4-yl)(3-(2-oxopyrrolidin-1-yl)phenyl)methyl)amino)-8-chloro-4-((3-chloro-4-fluorophenyl)amino)quinoline-3-carbonitrile]: 115 nM and 1 nM.
As for `CC(C)n1cc([C@@H](Nc2cc(Cl)c3ncc(C#N)c(Nc4ccc(F)c(Cl)c4)c3c2)c2cccc(N3CCC3=O)c2)nn1` [Example 551, (S)-8-chloro-4-((3-chloro-4-fluorophenyl)amino)-6-(((1-isopropyl-1H-1,2,3-triazol-4-yl)(3-(2-oxoazetidin-1-yl)phenyl)methyl)amino)quinoline-3-carbonitrile], in assay [1], the half-maximal effective concentration (EC50) was determined as 475 nM. Also, the IC50 in assay [2] was found to be 5 nM.
The matching figures for `CC(C)(C)N1CCC(n2cc([C@@H](Nc3cc(Cl)c4ncc(C#N)c(Nc5ccc(F)c(Cl)c5)c4c3)c3cccc(N4CCC4=O)c3)nn2)CC1` [Example 552, (S)-6-(((1-(1-(tert-butyl)piperidin-4-yl)-1H-1,2,3-triazol-4-yl)(3-(2-oxoazetidin-1-yl)phenyl)methyl)amino)-8-chloro-4-((3-chloro-4-fluorophenyl)amino)quinoline-3-carbonitrile]: 135 nM and 5 nM.
Turning to `CC(C)[C@@H](Nc1c(C#N)cnc2c(Cl)cc(N[C@@H](c3ccccc3)c3cn(C4CCN(C(C)(C)C)CC4)nn3)cc12)c1ccccc1` [Example 553, 6-(((S)-(1-(1-(tert-butyl)piperidin-4-yl)-1H-1,2,3-triazol-4-yl)(phenyl)methyl)amino)-8-chloro-4-(((R)-2-methyl-1-phenylpropyl)amino)quinoline-3-carbonitrile], in assay [1], the 50% effective concentration (EC50) was determined as 423 nM. Besides, the IC50 in assay [2] came out at 10 nM.
On the same counts, the results for `COCCNc1c(C#N)cnc2c(Cl)cc(N[C@@H](c3ccccc3)c3cn(C4CCN(C(C)(C)C)CC4)nn3)cc12` [Example 554, (S)-6-(((1-(1-(tert-butyl)piperidin-4-yl)-1H-1,2,3-triazol-4-yl)(phenyl)methyl)amino)-8-chloro-4-((2-methoxyethyl)amino)quinoline-3-carbonitrile] are 8250 nM and 1300 nM.
On the same counts, the results for `CC(C)(O)CNc1c(C#N)cnc2c(Cl)cc(N[C@@H](c3ccccc3)c3cn(C4CCN(C(C)(C)C)CC4)nn3)cc12` [Example 555, (S)-6-(((1-(1-(tert-butyl)piperidin-4-yl)-1H-1,2,3-triazol-4-yl)(phenyl)methyl)amino)-8-chloro-4-((2-hydroxy-2-methylpropyl)amino)quinoline-3-carbonitrile] are 537 nM and 183 nM.
The matching figures for `COC[C@@H](C)Nc1c(C#N)cnc2c(Cl)cc(N[C@@H](c3ccccc3)c3cn(C4CCN(C(C)(C)C)CC4)nn3)cc12` [Example 556, 6-(((S)-(1-(1-(tert-butyl)piperidin-4-yl)-1H-1,2,3-triazol-4-yl)(phenyl)methyl)amino)-8-chloro-4-(((R)-1-methoxypropan-2-yl)amino) quinoline-3-carbonitrile]: greater than 10000 nM and 725 nM.
Regarding `COC[C@H](C)Nc1c(C#N)cnc2c(Cl)cc(N[C@@H](c3ccccc3)c3cn(C4CCN(C(C)(C)C)CC4)nn3)cc12` [Example 557, 6-(((S)-(1-(1-(tert-butyl)piperidin-4-yl)-1H-1,2,3-triazol-4-yl)(phenyl)methyl)amino)-8-chloro-4-(((S)-1-methoxypropan-2-yl)amino)quinoline-3-carbonitrile], in assay [1], the EC50 was greater than 10000 nM. Besides, the IC50 in assay [2] came out at 999 nM.
For `CCC[C@@H](Nc1c(C#N)cnc2c(Cl)cc(N[C@@H](c3ccccc3)c3cn(C4CCN(C(C)(C)C)CC4)nn3)cc12)c1ccccc1` [Example 558, 6-(((S)-(1-(1-(tert-butyl)piperidin-4-yl)-1H-1,2,3-triazol-4-yl)(phenyl)methyl)amino)-8-chloro-4-(((R)-1-phenylbutyl)amino)quinoline-3-carbonitrile], the EC50 in assay [1] was found to be 199 nM. The concentration for half-maximal inhibition (IC50) in assay [2] was 11 nM.
The matching figures for `CC[C@@H](Nc1c(C#N)cnc2c(Cl)cc(N[C@@H](c3cccc(C(=O)N4CC(OC)C4)c3)c3c[nH]nn3)cc12)c1ccccc1` [Example 559, 8-chloro-6-(((S)-(3-(3-methoxyazetidine-1-carbonyl)phenyl)(1H-1,2,3-triazol-4-yl)methyl)amino)-4-(((R)-1-phenylpropyl)amino)quinoline-3-carbonitrile]: 6050 nM and 14 nM.
The matching figures for `CC[C@@H](Nc1c(C#N)cnc2c(Cl)cc(N[C@@H](c3cccc(C(=O)N4CC(O)C4)c3)c3c[nH]nn3)cc12)c1ccccc1` [Example 560]: 8830 nM and 3 nM.
On the same counts, the results for `CC[C@@H](Nc1c(C#N)cnc2c(Cl)cc(N[C@@H](c3cccc(C(=O)N4CC(F)(F)C4)c3)c3c[nH]nn3)cc12)c1ccccc1` [Example 561, 8-chloro-6-(((S)-(3-(3,3-difluoroazetidine-1-carbonyl)phenyl)(1H-1,2,3-triazol-4-yl)methyl)amino)-4-(((R)-1-phenylpropyl)amino)quinoline-3-carbonitrile] are 1150 nM and 6 nM.
As for `CC[C@@H](Nc1c(C#N)cnc2c(Cl)cc(N[C@@H](c3cccc(C(=O)N4CC(F)C4)c3)c3c[nH]nn3)cc12)c1ccccc1` [Example 562, 8-chloro-6-(((S)-(3-(3-fluoroazetidine-1-carbonyl)phenyl)(1H-1,2,3-triazol-4-yl)methyl)amino)-4-(((R)-1-phenylpropyl)amino)quinoline-3-carbonitrile], the EC50 in assay [1] worked out at 848 nM. Besides, in assay [2], the half-inhibitory concentration (IC50) was 4 nM.
The matching figures for `CC[C@@H](Nc1c(C#N)cnc2c(Cl)cc(N[C@@H](c3cccc(N(C)C(C)=O)c3)c3c[nH]nn3)cc12)c1ccccc1` [Example 563, N-(3-((S)-((8-chloro-3-cyano-4-(((R)-1-phenylpropyl)amino)quinolin-6-yl)amino)(1H-1,2,3-triazol-4-yl)methyl)phenyl)-N-methylacetamide]: 280 nM and 2 nM.
As for `CC[C@@H](Nc1c(C#N)cnc2c(Cl)cc(N[C@@H](c3cccc(N(C)C(C)=O)c3)c3cn(C4CCN(C(C)(C)C)CC4)nn3)cc12)c1ccccc1` [Example 564, N-(3-((S)-(1-(1-(tert-butyl)piperidin-4-yl)-1H-1,2,3-triazol-4-yl)((8-chloro-3-cyano-4 (((R)-1-phenylpropyl)amino)quinolin-6-yl)amino)methyl)phenyl)-N-methylacetamide], in assay [1], the EC50 was 68 nM. In addition, in assay [2], the IC50 amounted to 1 nM.
The matching figures for `CC[C@@H](Nc1c(C#N)cnc2c(Cl)cc(N[C@@H](c3cccc(C(=O)O)c3)c3c[nH]nn3)cc12)c1ccccc1` [Example 565, 3-((S)-((8-chloro-3-cyano-4-(((R)-1-phenylpropyl)amino)quinolin-6-yl)amino)(1H-1,2,3-triazol-4-yl)methyl)benzoic acid]: greater than 10000 nM and 24 nM.
On the same counts, the results for `CC(C)n1cc([C@@H](Nc2cc(Cl)c3ncc(C#N)c(Nc4ccc(F)c(Cl)c4)c3c2)c2cccc(NS(C)(=O)=O)c2)nn1` [Example 566, (S)-N-(3-(((8-chloro-4-((3-chloro-4-fluorophenyl)amino)-3-cyanoquinolin-6-yl)amino)(1-isopropyl-1H-1,2,3-triazol-4-yl)methyl)phenyl) methanesulfonamide] are 353 nM and 5 nM.
On the same counts, the results for `CC(C)n1cc([C@@H](Nc2cc(Cl)c3ncc(C#N)c(Nc4ccc(F)c(Cl)c4)c3c2)c2cccc(N(C)S(C)(=O)=O)c2)nn1` [Example 567, (S)-N-(3-(((8-chloro-4-((3-chloro-4-fluorophenyl)amino)-3-cyanoquinolin-6-yl)amino)(1-isopropyl-1H-1,2,3-triazol-4-yl)methyl)phenyl)-N-methylmethanesulfonamide] are 76 nM and 3 nM.
`CN(c1cccc([C@H](Nc2cc(Cl)c3ncc(C#N)c(Nc4ccc(F)c(Cl)c4)c3c2)c2cn(C3CCN(C(C)(C)C)CC3)nn2)c1)S(C)(=O)=O` [Example 568, (S)-N-(3-((1-(1-(tert-butyl)piperidin-4-yl)-1H-1,2,3-triazol-4-yl)((8-chloro-4-((3-chloro-4-fluorophenyl)amino)-3-cyanoquinolin-6-yl)amino)methyl)phenyl)-N-methylmethanesulfonamide]: the concentration giving a half-maximal response (EC50) in assay [1] came out at 143 nM. The half-maximal inhibitory concentration (IC50) in assay [2] was determined as 2 nM.
